pIC50: −log10 of the molar value.
Molecular target: T1, G1 APOL1 (Homo sapiens, UniProt O14791, I384M/S342G)
T1 construct: expressed in transfected cells
T1 sequence (O14791 28-398 S342G/I384M): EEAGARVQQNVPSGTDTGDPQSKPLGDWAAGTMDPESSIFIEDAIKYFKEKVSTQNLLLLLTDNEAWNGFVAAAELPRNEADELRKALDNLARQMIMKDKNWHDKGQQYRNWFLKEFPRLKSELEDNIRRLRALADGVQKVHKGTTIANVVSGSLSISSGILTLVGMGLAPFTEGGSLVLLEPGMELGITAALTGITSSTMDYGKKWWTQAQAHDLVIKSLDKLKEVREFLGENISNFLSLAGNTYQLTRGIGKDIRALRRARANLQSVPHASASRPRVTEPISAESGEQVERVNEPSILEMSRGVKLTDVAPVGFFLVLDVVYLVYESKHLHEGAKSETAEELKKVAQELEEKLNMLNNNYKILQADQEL
Assay: Acute APOL1 Thallium Assay with inducible stable clones of HEK 293 cells
Assay type: cell-based
Details: HEK 293 T-Rex cells expressing G1 APOL1; read-out: Thallium Assay (IC50)
Excerpt: Acute APOL1 Thallium Assay with Inducible Stable Clones of HEK 293 Cells
Apolipoprotein L1 (APOL1) proteins form potassium-permeable cation pores in the plasma membrane. APOL1 risk variants (G1 and G2) induce greater potassium flux than G0 in HEK293 cells. This assay exploits the permeability of thallium (Tl+) through ligand-gated potassium channels. The dye produces a bright fluorescent signal upon binding to Tl+ conducted through potassium channels. The intensity of the Tl+ signal is proportional to the number of potassium channels in the open state. Therefore, it provides a functional indication of the potassium channel activities. During the initial dye-loading step, the Tl+ indicator dye as an acetoxymethyl (AM) ester enters the cells through passive diffusion. Cytoplasm esterases cleave the AM ester and relieve its active thallium-sensitive form. The cells are then stimulated with Tl+. The increase of fluorescence in the assay represents the influx of Tl+ into the cell specifically through the potassium channel (i.e. through APOL1 pores), providing a functional measurement of potassium channel/pore activity. The Thallium assay is conducted with cells expressing G1 APOL1.
APOL1 Cell Line (HEK T-Rex Stable Inducible Cell Line) • HEK T-Rex System • Tetracycline (Tet) inducible mammalian expression system. • Stably express the Tet repressor to regulate transcription. • Expression under the full-length CMV promoter. • APOL1 stable inducible cell line Clone used: G1 DC3.25
Tissue Culture Media • Cell Culture Medium • DMEM+10% FBS+P/S+5 μg/mL blasticidin+1 μg/mL puromycin. • 500 mL DMEM+55 mL FBS+5 mL P/S+280 μL blasticidin S HCl (10 mg/mL)+56 μL puromycin (10 mg/mL). • Cell Assay Medium • DMEM with 2% FBS+pen strep.
Instruments and Equipment • Nuaire cell culture hood, Cat. No. 540-600 • 37° C./5% CO2 incubator link to robotic arm, Liconic: STX110 • Molecular Devices FLIPR^Tetra High throughput cellular screening system, Cat. No. FT0324, Molecular Devices • ThermoFisher MultiDrop 384, Cat. No. 5840300 • Biotek Microfill, Cat. No. ASF1000A-4145 • BioRad TC10 cell counter, Cat. No. 145-0010 Assay Procedures
Cells Scaled Up from Frozen Vials • APOL1 G1 3.25 (HEK293 T-Rex) frozen vials: 5 million cells per vial • Step 1, Day 1: Defrost frozen vial into T-225. • Step 2, Day 5: (when 85% confluent): Split one T-225 at 3×10^6 cells per flask. • Step 3, Day 8: Splits cells to set up for the assay plates as described below.
T-Rex APOL1 HEK cells are split twice per week to keep the confluence state below 85% of the culture flask surface area. Cells can be kept until passage 25. • Cell Culture Medium • DMEM high glucose+10% FBS, +P/S, +5 μg/mL blasticidin, +1 μg/mL puromycin. • 500 mL DMEM, +55 mL FBS, +5 mL P/S, +280 μL blasicidin 10 mg/mL, +56 μL Puromycin 10 mg/mL. • Assay Media • Opti-MEM reduced serum medium from Invitrogen.
Preparation of Cell Assay Plates • Culture medium is removed from the x cm^2 T-flask by aspiration. • The cell monolayer is rinsed with PBS 1× at room temperature. PBS is removed by aspiration. • Cells are trypsinized using Trypsin. • The flasks are incubated at room temperature for 2-3 minutes. • Complete DMEM medium is then added. Cell suspension is then transferred to a 50 mL Falcon polypropylene tube. • Cells are then counted using a Biorad TC10 cell counter and the required amount of cells are centrifuged at 1200 RPM for 5 minutes. Required amount is 1.3×10^6 cells/mL APOL1 T-Rex HEK cells. • The pellet is suspended in the assay medium. • Using the MultiDrop, add 20 μL to each well (corresponds to 26000 cells total per well) of a 384-well black, transparent, flat bottom Poly-D coated plate. • Tetracycline as prepared in the following section is added to the cells before plating to induce APOL1 expression. • Plates are left at room temperature for 20 to 30 minutes before incubation at 37° C. and 5% CO2. […]

SMILES	pIC50
CC(O)[C@H](CO)NC(=O)[C@H]1C[C@@H](c2c(-c3ccc(F)cc3)[nH]c3c(F)cc(F)cc32)C1 (stereo partly shown) [Compound 270]	< 6.00
O=C(NCC(F)F)[C@H]1C[C@@H](c2c(-c3ccc(F)cc3)[nH]c3c(F)cc(F)cc32)C1 [Compound 238]	6.00 to 6.60
O=C(NCC(O)CO)[C@H]1C[C@@H](c2c(-c3ccc(F)cc3)[nH]c3c(F)cc(F)cc32)C1 (stereo partly shown) [Compound 244]	< 6.00
C[C@@H](CO)NC(=O)[C@H]1C[C@H](c2c(-c3ccc(F)cc3)[nH]c3c(F)cc(F)cc32)C1 [Compound 27]	> 6.60
O=C1NCCCC1NC(=O)[C@H]1C[C@@H](c2c(-c3ccc(F)cc3)[nH]c3c(F)cc(F)cc32)C1 (stereo partly shown) [Compound 249]	< 6.00
O=C(NC1(CO)CC1)C1(F)CC(c2c(-c3ccc(F)cc3)[nH]c3c(F)cc(F)cc23)C1 (stereo not shown) [Compound 285]	> 6.60

Second part, the molecule after the results:

pIC50	SMILES
6.00 to 6.60	O=C(NCCO)[C@H]1C[C@@H](c2c(-c3ccc(F)cc3)[nH]c3c(F)cc(F)cc32)C1 [Compound 237]
< 6.00	C[C@@H](O)CNC(=O)[C@H]1C[C@@H](c2c(-c3ccc(F)cc3)[nH]c3c(F)cc(F)cc32)C1 [Compound 258]

Same assay, conditions: Table 24, Compounds 287 to 465; read-out: Thallium Assay (IC50)

SMILES	pIC50
O=C1CC(CNC(=O)C2CC(Cc3c(-c4ccc(F)cc4)[nH]c4c(F)cc(F)cc34)C2)CN1 (stereo not shown) [Compound 336]	< 6.00
O=C(N[C@H]1COC[C@@H]1O)O[C@H]1C[C@H](c2c(-c3ccc(F)cc3)[nH]c3c(F)cc(F)cc32)C1 [Compound 389]	< 6.00
CC(C)NC(=O)CN[C@H]1C[C@H](c2c(-c3ccc(F)cc3)[nH]c3c(F)cc(F)cc32)C1 [Compound 290]	< 6.00
O=C(NCC1CCOC1)O[C@H]1C[C@H](c2c(-c3ccc(F)cc3)[nH]c3c(F)cc(F)cc32)C1 (stereo partly shown) [Compound 384]	< 6.00
Cc1cc(CNC(=O)O[C@H]2C[C@H](c3c(-c4ccc(F)cc4)[nH]c4c(F)cc(F)cc43)C2)on1 [Compound 385]	< 6.00
O=C(NCc1cnco1)O[C@H]1C[C@H](c2c(-c3ccc(F)cc3)[nH]c3c(F)cc(F)cc32)C1 [Compound 353]	6.00 to 6.60
O=C(NC1CC1)O[C@H]1C[C@H](c2c(-c3ccc(F)cc3)[nH]c3c(F)cc(F)cc32)C1 [Compound 358]	6.00 to 6.60
C[C@H](O)CNC(=O)C1CC(Cc2c(-c3ccc(F)cc3)[nH]c3c(F)cc(F)cc23)C1 (stereo partly shown) [Compound 300]	< 6.00
O=C(NCc1ncc[nH]1)O[C@H]1C[C@H](c2c(-c3ccc(F)cc3)[nH]c3c(F)cc(F)cc32)C1 [Compound 373]	< 6.00
O=C(NCC1(O)COC1)NC[C@H]1C[C@H](c2c(-c3ccc(F)cc3)[nH]c3c(F)cc(F)cc32)C1 [Compound 398]	< 6.00
CN(C(=O)NC[C@H]1C[C@H](c2c(-c3ccc(F)cc3)[nH]c3c(F)cc(F)cc32)C1)C1COCC1O (stereo partly shown) [Compound 415]	< 6.00
O=C(NCC1CCCO1)C1CC(Cc2c(-c3ccc(F)cc3)[nH]c3c(F)cc(F)cc23)C1 (stereo not shown) [Compound 321]	< 6.00
Cc1noc(CNC(=O)C2CC(Cc3c(-c4ccc(F)cc4)[nH]c4c(F)cc(F)cc34)C2)n1 (stereo not shown) [Compound 304]	< 6.00
C[C@@H](CO)NC(=O)N[C@H]1C[C@H](c2c(-c3ccc(F)cc3)[nH]c3c(F)cc(F)cc32)C1 [Compound 295, 1-((1r,3S)-3-(5,7-difluoro-2-(4-fluorophenyl)-1H-indol-3-yl)cyclobutyl)-3-((S)-1-hydroxypropan-2-yl)urea]	6.00 to 6.60
O=C(NCC1(CO)COC1)NC[C@H]1C[C@H](c2c(-c3ccc(F)cc3)[nH]c3c(F)cc(F)cc32)C1 [Compound 396]	< 6.00
O=C(NC[C@H]1C[C@H](c2c(-c3ccc(F)cc3)[nH]c3c(F)cc(F)cc32)C1)N[C@H]1CC[C@@H]1O [Compound 402]	< 6.00
CN(CC1CC(c2c(-c3ccc(F)cc3)[nH]c3c(F)cc(F)cc23)C1)C(=O)N1CCC1 (stereo not shown) [Compound 432]	< 6.00
CC1(NC(=O)NC[C@H]2C[C@H](c3c(-c4ccc(F)cc4)[nH]c4c(F)cc(F)cc43)C2)CCNC1=O (mixture of isomers) [Compound 426]	< 6.00
CS(=O)(=O)CCNC(=O)C1CC(Cc2c(-c3ccc(F)cc3)[nH]c3c(F)cc(F)cc23)C1 (stereo not shown) [Compound 316]	< 6.00
O=C(NC[C@H]1C[C@H](c2c(-c3ccc(F)cc3)[nH]c3c(F)cc(F)cc32)C1)N1CCC[C@@H]1CO [Compound 405]	< 6.00
C[C@@H](O)[C@@H](CO)NC(=O)O[C@H]1C[C@H](c2c(-c3ccc(F)cc3)[nH]c3c(F)cc(F)cc32)C1 [Compound 372]	< 6.00
CC1(NC(=O)C2CC(Cc3c(-c4ccc(F)cc4)[nH]c4c(F)cc(F)cc34)C2)CCOC1 (mixture of isomers) [Compound 334]	< 6.00
O=C(NCC1(O)CC1)NC[C@H]1C[C@H](c2c(-c3ccc(F)cc3)[nH]c3c(F)cc(F)cc32)C1 [Compound 399]	< 6.00

The remaining lines, values ahead:

pIC50	SMILES
< 6.00	C[C@@H](O)CNC(=O)NC[C@H]1C[C@H](c2c(-c3ccc(F)cc3)[nH]c3c(F)cc(F)cc32)C1 [Compound 407]
< 6.00	CC[C@@H](CO)NC(=O)NC[C@H]1C[C@H](c2c(-c3ccc(F)cc3)[nH]c3c(F)cc(F)cc32)C1 [Compound 421]
< 6.00	O=C(NCC1CC1)O[C@H]1C[C@H](c2c(-c3ccc(F)cc3)[nH]c3c(F)cc(F)cc32)C1 [Compound 370]
< 6.00	C[C@H](O)CNC(=O)O[C@H]1C[C@H](c2c(-c3ccc(F)cc3)[nH]c3c(F)cc(F)cc32)C1 [Compound 365]
< 6.00	CCC(O)CNC(=O)O[C@H]1C[C@H](c2c(-c3ccc(F)cc3)[nH]c3c(F)cc(F)cc32)C1 (stereo partly shown) [Compound 388]
< 6.00	CC(C)NC(=O)CNC[C@H]1C[C@H](c2c(-c3ccc(F)cc3)[nH]c3c(F)cc(F)cc32)C1 [Compound 451]
< 6.00	CC(CO)(CO)NC(=O)NC[C@H]1C[C@H](c2c(-c3ccc(F)cc3)[nH]c3c(F)cc(F)cc32)C1 [Compound 397]
< 6.00	O=C(CC1CC(c2c(-c3ccc(F)cc3)[nH]c3c(F)cc(F)cc23)C1)N[C@@H]1CCNC1=O (stereo partly shown) [Compound 457]
< 6.00	O=C(CC1CC(c2c(-c3ccc(F)cc3)[nH]c3c(F)cc(F)cc23)C1)N[C@H]1CCNC1=O (stereo partly shown) [Compound 456]
< 6.00	COCCNC(=O)CC1CC(c2c(-c3ccc(F)cc3)[nH]c3c(F)cc(F)cc23)C1 (stereo not shown) [Compound 460]
6.00 to 6.60	O=C(CC1CC(c2c(-c3ccc(F)cc3)[nH]c3c(F)cc(F)cc23)C1)NC1(CO)CC1 (stereo not shown) [Compound 453]
< 6.00	NC(=O)CCNC1CC(c2c(-c3ccc(F)cc3)[nH]c3c(F)cc(F)cc23)C1 (stereo not shown) [Compound 287, 3-[[3-[5,7-difluoro-2-(4-fluorophenyl)-1H-indol-3-yl]cyclobutyl]amino]propanamide]

Source: US12116343B2, “Inhibitors of APOL1 and methods of using same” (Vertex Pharmaceuticals Incorporated, priority 2020, dated 2024)
